In brackets after ≈: the same amount, converted by molar mass. Where a name gives a salt, the structure may show the parent alone. Read-outs that look alike come from different tables or passages of the source.
Tests used:
Aqueous solubility = assay type: physicochemical; details: water
[1] = test system: human blood platelets in platelet-rich-plasma (ADP-induced aggregation); test: In vitro inhibition of ADP-induced human platelet aggregation (aggregometer method of Born); assay type: cell-based
Experimental: The aggregometer method of Born, G. V. R., J. Physiol., (London), 162, 67-68, (1962) as modified by Mustard, J. F., et al., J. Lab. Clin. Med., 64, 548-599, (1964) was used to assess the in vitro activity of the various compounds as to the inhibition of adenosine diphosphate (ADP) and collagen-induced platelet aggregation. The human volunteer donor's arm is cleansed with 70% ethyl alcohol. A sterile 20 ml syringe and needle are used to withdraw 20 ml of blood. The blood is immediately added to a test tube containing 3.8% sodium citrate to prevent clotting (1 part citrate to 9 parts blood).
Platelet rich plasma (PRP) was separated by centrifugation for 10 minutes at 1000 rpm (140 g) from citrated (3.8%) human blood. All glassware used for preparation of PRP is silicon treated. ADP in final concentration of 0.5 mcg/mL or 0.05 mL of a collagen suspension prepared according to the method described by Evans, G., et al., J. Exp. Med., 128, 877-894, (1968) was used to induce aggregation. The various compounds tested were dissolved in dimethylsulfoxide (DMSO) so that 5 mcl added to the platelet rich plasma would yield the desired test concentration. Vehicle control trials were done and compared with aggregation induced in platelet rich plasma containing various concentrations of the test compounds. Dose response curves were obtained and Inhibitor Concentration (IC50) values calculated.
The target compounds were evaluated as inhibitors of ADP-induced aggregation of human blood platelets in platelet-rich-plasma (PRP) in vitro.

[2] = 0.05 h, ADP 0.5 mcg/mL, human PRP, standard protocol: about 3 minutes incubation prior to agonist, read-out: IC50 vs ADP in human PRP

Row | SMILES | solubility (Aqueous solubility) | IC50 [1, 2] | IC50 ([1]; Homo sapiens, incubation with PRP for about 15 minutes prior to adding ADP, read-out: observed IC50, ADP-induced aggregation) | IC50 ([1]; Homo sapiens, read-out: concentration providing 50% inhibition of ADP-induced aggregation, incubation with PRP for about 3 minutes prior to addition of the agonist)
1 | CCOC(=O)NCCCOc1ccc2nc3[nH]c(=O)[nH]c3cc2c1 [Cmpd 7a] | < 10000 µg/mL | 0.035 µg/mL (≈ 0.106 µM) |  | 
2 | Cl.Cl.O=C(NCCCOc1ccc2nc3[nH]c(=O)[nH]c3cc2c1)N1CCN(CC2CCCC2)CC1 [Cmpd 7h, 4-(Cyclopentylmethyl)-N-[3-(2,3-dihydro-2-oxo-1H-imidazo[4,5-b]quinolin-7yloxy)propyl]-1-piperazinecarboxamide dihydrochloride] | 700 µg/mL | 0.05 µg/mL |  | 
3 | O=C(NCCCOc1ccc2nc3[nH]c(=O)[nH]c3cc2c1)N1CCN(Cc2ccsc2)CC1 [Cmpd 7t, N-3-(2,3-dihydro-2-oxo-1H-imidazo[4,5-b]quinolin-7yloxy)propyl]-4-[(3-thienyl)methyl)-1-piperazinecarboxamide dihydrochloride] | 3000 µg/mL | 0.15 µg/mL |  | 
4 | O=C(NCCCOc1ccc2nc3[nH]c(=O)[nH]c3cc2c1)N1CCN(CC2CCCCO2)CC1 (stereo not drawn) [Cmpd 7j, N-[3-(2,3-dihydro-2-oxo-1H-imidazo[4,5-b]quinolin-7yloxy)propyl-4-(tetrahydro-2H-pyran-2-yl)methyl]-1-piperazinecarboxamide dihydrochloride ethanol solvate] | > 20000 µg/mL | 0.09 µg/mL |  | 
5 | O=C(NCCCOc1ccc2nc3[nH]c(=O)[nH]c3cc2c1)N1CCNCC1 [Cmpd 7n, N-[3-(2.3-dihydro-2-oxo-1H-imidazo4.5-b]quinolin-7yloxy)propyl]-1-piperazinecarboxamide dihydrochloride ethanol solvate] | < 500 µg/mL | 3.8 µg/mL |  | 
6 | Cl.Cl.O=C(NCCCOc1ccc2nc3[nH]c(=O)[nH]c3cc2c1)N1CCN(CCC2CCCCC2)CC1 [Cmpd 7i, 4-(Cyclohexylethyl)-N-[3-(2,3-dihydro-2-oxo-1H-imidazo [4,5-b]quinolin-7yloxy)propyl]-1-piperazinecarboxamide dihydrochloride] | 500 µg/mL | 0.04 µg/mL |  | 
7 | O=C(NCCCOc1ccc2nc3[nH]c(=O)[nH]c3cc2c1)N1CCN(CC2CCCCCC2)CC1 [Cmpd 7g, 4-(Cycloheptylmethyl)-N-[3-(2.3-dihydro-2-oxo-1H-imidazo[4,5-b]quinolin-7yloxy)propyl]-1piperazinecarboxamide dihydrochloride] | 2000 µg/mL | 0.03 µg/mL |  | 
8 | CCC(CC)CN1CCN(C(=O)NCCCOc2ccc3nc4[nH]c(=O)[nH]c4cc3c2)CC1.Cl.Cl [Cmpd 7l, N-[3-(2,3-dihydro-2-oxo-1H-imidazo[4,5-b]quinolin-7yloxy)propyl]-4-(2-ethylbutyl)-1-piperazinecarboxamide dihydrochloride] | > 20000 µg/mL | 0.022 µg/mL |  | 
9 | O=C(NCCCOc1ccc2nc3[nH]c(=O)[nH]c3cc2c1)N1CCN(c2ccccn2)CC1 [Cmpd 7w, N-[3-(2,3-dihydro-2-oxo-1H-imidazo[4,5-b]quinolin-7yloxy)propyl]-4-(2-pyridyl)-1-piperazinecarboxamide dihydrochloride ethanol solvate] | 500 µg/mL | 0.38 µg/mL |  | 
10 | O=C(NCCCOc1ccc2nc3[nH]c(=O)[nH]c3cc2c1)N1CCN(CCc2ccccc2)CC1 [Cmpd 7r, N-[3-(2,3-dihydro-2-oxo-1H-imidazo[4,5-b]quinolin-7yloxy)propyl]-4-[(2-phenylethyl)-1-piperazinecarboxamidedihydrochloride] | 250 µg/mL | 0.17 µg/mL |  | 
11 | Cl.Cl.O=C(NCCCOc1ccc2nc3[nH]c(=O)[nH]c3cc2c1)N1CCN(CC2CCCCC2)CC1 [Cmpd 7f, 4-(Cyclohexylmethyl)-N-[3-(2,3-dihydro-2-oxo-1H-imidazo[4,5-b]quinolin-7yloxy)propyl]-1-piperazinecarboxamide dihydrochloride] | > 20000 µg/mL | 0.04 µg/mL |  | 
12 | Cl.O=C(NCCCOc1ccc2nc3[nH]c(=O)[nH]c3cc2c1)NC1CCCCC1 [Cmpd 7c, N-Cyclohexyl-N'-[3-[(2,3-dihydro-2-oxo-1H-imidazo[4,5-b]quinolin-7-yl)oxy]propyl]urea hydrochloride] | < 10000 µg/mL | 0.3 µg/mL |  | 
13 | O=C(NCCCOc1ccc2nc3[nH]c(=O)[nH]c3cc2c1)N1CCN(Cc2ccc(Cl)cc2)CC1 [Cmpd 7p, N-[3-(2,3-dihydro-2-oxo-1H-imidazo[4,5-b]quinolin-7yloxy)propyl]-4-(4-chlorophenyl)methyl)-1-piperazine carboxamide dihydrochloride] | 200 µg/mL | 0.17 µg/mL |  | 
14 | CC(C)CN1CCN(C(=O)NCCCOc2ccc3nc4[nH]c(=O)[nH]c4cc3c2)CC1.Cl.Cl [Cmpd 7k, N-[3-(2,3-dihydro-2-oxo-1H-imidazo[4,5-b]quinolin-7yloxy)propyl]-4-(2-methylpropyl]-1-piperazinecarboxamide dihydrochloride] | > 20000 µg/mL | 0.09 µg/mL |  | 
15 | O=C(NCCCOc1ccc2nc3[nH]c(=O)[nH]c3cc2c1)N1CCN(Cc2ccccc2)CC1 [Cmpd 7o, N-[3-(2,3-dihydro-2-oxo-1H-imidazo[4,5-b]quinolin-7yloxy)propyl]-4-(phenylmethyl)-1-piperazinecarboxamide dihydrochloride ethanol solvate] | > 20000 µg/mL | 0.18 µg/mL |  | 
16 | Cl.Cl.O=C(NCCCOc1ccc2nc3[nH]c(=O)[nH]c3cc2c1)N1CCN(c2ncccn2)CC1 [Cmpd 7v, N-[3-(2,3-dihydro-2-oxo-1H-imidazo[4,5-b]quinolin-7yloxy)propyl]-4-(2-pyrimidinyl)-1-piperazinecarboxamide dihydrochloride] | 100 µg/mL | 0.17 µg/mL |  | 
17 | CCCC(CCC)CN1CCN(C(=O)NCCCOc2ccc3nc4[nH]c(=O)[nH]c4cc3c2)CC1.Cl.Cl [Cmpd 7m, N-[3-(2,3-dihydro-2-oxo-1H-imidazo[4,5-b]quinolin-7yloxy)propyl]-4-(2-propylpentyl]-1-piperazinecarboxamide dihydrochloride] | 500 µg/mL | 0.07 µg/mL |  | 
18 | O=C(NCCCOc1ccc2nc3[nH]c(=O)[nH]c3cc2c1)N1CCN(Cc2ccc(F)cc2)CC1 [Cmpd 7q, N-[3-(2,3-dihydro-2-oxo-1H-imidazo[4,5-b]quinolin-7yloxy)propyl]-4-[(4-fluorophenyl)methyl)-1-piperazine carboxamide dihydrochloride ethanol solvate] | > 20000 µg/mL | 0.205 µg/mL |  | 
19 | CN(C(=O)NCCCOc1ccc2nc3[nH]c(=O)[nH]c3cc2c1)C1CCCCC1 [Cmpd 7b, N-Cyclohexyl-N'-[3-[(2,3-dihydro-2-oxo-1H-imidazo[4,5-b]quinolin-7-yl)oxy]propyl]-N-methylurea] | < 10000 µg/mL | 0.04 µg/mL (≈ 0.101 µM) |  | 
20 | O=C(NCCCOc1ccc2nc3[nH]c(=O)[nH]c3cc2c1)N1CCN(Cc2cccs2)CC1 [Cmpd 7s, N-[3-(2,3-dihydro-2-oxo-1H-imidazo[4,5-b]quinolin-7yloxy)propyl]-4-[(2-thienyl)methyl)-1-piperazinecarboxamide dihydrochloride ethanol solvate] | > 10000 µg/mL | 0.09 µg/mL |  | 
21 | Cl.O=C(NCCCOc1ccc2nc3[nH]c(=O)[nH]c3cc2c1)N1CCC(Cc2ccccc2)CC1 [Cmpd 7e, N-[3-(2,3-dihydro-2-oxo-1H-imidazo[4,5-b]quinolin-7yloxy)propyl]-4-(phenylmethyl)-1-piperidinecarboxamide hydrochloride] | < 200 µg/mL | 0.08 µg/mL |  | 
22 | O=C(NCCCOc1ccc2nc3[nH]c(=O)[nH]c3cc2c1)N1CCOCC1 [Cmpd 7d] | < 10000 µg/mL | 1.2 µg/mL (≈ 3.23 µM) |  | 
23 | Cl.Cl.O=C(NCCCOc1ccc2nc3[nH]c(=O)[nH]c3cc2c1)N1CCC(N2CCCCC2)CC1 [Cmpd 7u, N-[3-(2,3-dihydro-2-oxo-1H-imidazo[4,5-b]quinolin-7yloxy)propyl]-4-(1-piperidinyl)-1-piperidinecarboxamide dihydrochloride] | > 20000 µg/mL | 5.2 µg/mL |  | 
24 | O=C(CCCOc1ccc2nc3[nH]c(=O)[nH]c3cc2c1)N1CCN(CC2CCCCC2)CC1 [formula (3) compound, reference compound] |  |  | 0.041 µg/mL | 0.182 µg/mL

Source: US5196428A, “Imidazo[4,5-b]qinolinyl oxy alkyl ureas” (Bristol-Myers Squibb Company, priority 1992, dated 1993)
